Consider five molecules from article PMC5963591, “Bitopic Binding Mode of an M1 Muscarinic Acetylcholine Receptor Agonist Associated with Adverse Clinical Trial Outcomes” (Molecular Pharmacology, 2018).

One data set relates to wild-type M1 mAChR. In words: Agonist bias analysis, IP1 versus ERK1/2 phosphorylation (operational model). To be noted: reference ligand ACh. In kind it is cell-based, human. From the text: (§1) For the analysis, all families of agonist curves at each pathway were globally fitted to the model with the parameters, basal, Em, and n shared between all agonists. For full agonists, the LogKA was constrained to a value of zero, whereas for partial agonists this was directly estimated by the curve fitting procedure; the Log(τ/KA) parameter was estimated as a unique measure of activity for each agonist.

Data set [1] concerns the target T1, human M1 mAChR (Homo sapiens, UniProt P11229).
T1 sequence (P11229 1-460): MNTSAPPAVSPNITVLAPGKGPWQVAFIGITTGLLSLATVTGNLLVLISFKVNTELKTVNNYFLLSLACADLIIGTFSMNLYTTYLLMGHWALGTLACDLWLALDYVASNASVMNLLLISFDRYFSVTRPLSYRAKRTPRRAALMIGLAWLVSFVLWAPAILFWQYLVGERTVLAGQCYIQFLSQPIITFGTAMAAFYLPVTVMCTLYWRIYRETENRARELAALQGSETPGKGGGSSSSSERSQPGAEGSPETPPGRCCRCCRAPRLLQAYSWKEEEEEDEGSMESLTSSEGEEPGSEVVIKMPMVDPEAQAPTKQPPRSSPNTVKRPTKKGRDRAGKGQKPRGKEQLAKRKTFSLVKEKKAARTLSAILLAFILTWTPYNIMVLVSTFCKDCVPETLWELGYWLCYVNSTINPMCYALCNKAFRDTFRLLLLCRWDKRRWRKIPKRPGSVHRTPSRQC
Nature of the data set: IP1 accumulation after receptor alkylation with phenoxybenzamine (functional interaction with ACh). As to conditions: phenoxybenzamine 3 μM for 30 minutes, CHO Flp-In cells.

The target in the next data set is T2, human M1 receptor (Homo sapiens, UniProt P11229).
T2 construct: expressed in transfected cells; host or cells: CHO Flp-In
T2 sequence (P11229 1-460): T1 sequence (P11229 1-460)
Nature of the data set: ERK1/2 phosphorylation, CHO Flp-In human M1 cells. In kind it is cell-based. The procedure:
CHO Flp-In cells stably expressing the human M1 receptor were seeded onto transparent 96-well plates at 20,000 cells/well and grown to confluence. Cells were serum starved overnight prior to the experiment. Prior to the stimulations, cells were washed with 100 μl phosphate-buffered saline and then incubated in serum free F12 medium at 37°C. Cells were stimulated with ligands for 5 minutes at 37°C in a final volume of 200 μl. The stimulations were terminated by rapid aspiration and addition of 50 μl lysis buffer supplemented with blocking reagent per the manufacturer’s instructions, followed by gentle agitation at room temperature for 30 minutes. Subsequently, 16 μl of this lysate was transferred to a 384-well white ProxiPlate (PerkinElmer) and incubated with 4 μl premixed antibody solution for 2 hours at room temperature.
as §1

The next data set has as its system C57Bl/6J mice. In words: Contextual fear conditioning, scopolamine-induced deficit. Type of data set: in vivo, mouse. As to conditions: for shape of the dose response on learning and memory: escalating i.p. doses with scopolamine […]. The procedure:
C57Bl/6J male mice (aged 8–12 weeks) were acclimatized to the behavioral testing suite at least 2 hours prior to the test. […] Mice were placed in the conditioning chamber (ANY-maze Fear Conditioning System; Stoelting, Dublin, Ireland); after a 2-minute adaptation period, they received three tone/foot shock pairings where the foot shock (unconditioned stimulus; 2 seconds; 0.4 mA) always co-terminated with a tone (conditioned stimulus; 2.8 kH; 85 dB; 30 seconds). The conditioned stimulus–unconditioned stimulus pairings were separated by 1-minute intervals. After the mice completed training, they remained in the conditioning chamber for 1 minute and were then returned to their home cages. The next day, the mice were placed back in the conditioning chamber, and time spent immobile was recorded for 3 minutes to assess context-dependent learning. Data were analyzed using ANY-maze software (Stoelting).

A short description of data set [2]: Mouse pharmacokinetics, unbound plasma and brain concentrations. Type of data set: in vivo. As to conditions: mice, 30 minutes after i.p. administration. The procedure:
Pharmacokinetic analyses were conducted as previously described ([Witkin et al., 2017]). Compounds were administered via intraperitoneal injection (in 5% glucose) 30 minutes prior to blood collection. Mice were anesthetized with 3% isoflurane (2 l/min), and blood was collected by cardiac puncture of the left ventricle. Blood was immediately transferred to EDTA tubes and centrifuged at 1000g for 10 minutes at 4°C; the supernatant was collected and frozen. Brains from each mouse were also dissected and snap-frozen on dry ice.
Brain samples were homogenized in three volumes of methanol/water [1:4 (v/v)] by weight. A 25-μl aliquot of each study sample, calibration standard, and control sample was added to a 96-well plate and mixed with 180 μl acetonitrile/methanol [1:1 (v/v)] containing internal standard. The samples were subsequently centrifuged, and the resulting supernatants were diluted 12.5-fold with methanol/water [1:1 (v/v)] prior to analyzing 10-μl aliquots by liquid chromatography–tandem mass spectrometry as previously described ([Bradley et al., 2017]).

Data set [3] concerns the target T1, human M1 mAChR. To be noted: 20 nM [^3H]-GSK1034702.
Data set [4] deals with T1, human M1 mAChR. Nature of the data set: Kinetic [3H]-NMS binding (dissociation) in membranes. To be noted: compound 10 μM plus atropine 10 μM. Details: expressed in transfected cells; host or cells: CHO Flp-In. The procedure:
Reactions were terminated by rapid filtration onto GF/B filter paper (Whatman, Maidstone, UK) and three washes with 3 ml ice-cold 0.9% NaCl using a Brandel harvester (M-24TI; Brandel, Fort Lauderdale, FL). Membrane bound radioactivity was determined by liquid scintillation (Ultima Gold; PerkinElmer) counting.

For data set [5], the target named is T1, human M1 mAChR. Nature of the data set: IP-One (IP1) accumulation assay, CHO Flp-In human M1 cells. In kind it is cell-based. Details: expressed in transfected cells; host or cells: CHO Flp-In. The procedure: Stimulation of IP accumulation was determined using the Cisbio IP-One Gq assay kit per the manufacturer’s instructions. […] CHO Flp-In cells stably expressing the human M1 mAChR were grown to confluence in T75 cell culture flasks at 37°C. Cells were washed with warm phosphate-buffered saline and detached using phosphate-buffered saline with 0.1 M EDTA. Detached cells were centrifuged at 1000g and the cells were resuspended in stimulation buffer.
All IP-One stimulations were terminated by the addition of 3 μl/well IP1-d2 solution, followed by 3 μl/well anti–IP1-cryptate solution and incubation for 1 hour at room temperature with shaking.
Functional concentration-response curves were fitted according to a four-parameter logistic equation (to determine minimum and maximum asymptotes, LogEC50, and slope; GraphPad Prism 6). […] In the absence of antagonist ([B] = 0), this equation becomes the standard four-parameter logistic equation for fitting agonist concentration-response data.

The next data set has as its system patients with AD. Details: method as in Bodick et al., 1997. As to conditions: ref Bodick et al., 1997; cited from earlier work.
In a further data set the test system is murine prion disease. As to conditions: doses that rescued learning and memory, ref Bradley et al., 2017; cited from earlier work.
Setting [6] is: normalized to reference ligand ACh.
Where [7] appears, read: transduction coefficient, wild-type M1 mAChR.

For `CC(=O)OCC[N+](C)(C)C` [ACh, acetylcholine], the “Log Bias Factor IP1 – ERK1/2 ΔΔLog10(τ/KA)” value in the data set with wild-type M1 mAChR was determined as 0.0 ± 0.1.

Turning to `CC(COc1ccccc1)N(CCCl)Cc1ccccc1` (stereo not drawn) [Phenoxybenzamine, phenoxybenzamine, reference compound], the “reduction of the functional human M1 mAChR population” value at human M1 mAChR [1] is given as “approximately 80%”.

Consider `Cc1ccccc1CN1CCC(N2CCC(n3c(=O)[nH]c4ccccc43)CC2)CC1` [TBPB, 1-[1′-(2-methylbenzyl)-1,4′-bipiperidin-4-yl]-1,3-dihydro-2H-benzimidazol-2-one, reference compound], for which, at human M1 receptor (setting [6]), the “ERK1/2 Phosphorylation ΔLog10(τ/KA)” value was −0.3 ± 0.4. Moreover, the “ERK1/2 Phosphorylation Log10(τ/KA)” value at human M1 receptor (setting [7]) worked out at 6.9 ± 0.4. In addition, the “Log Bias Factor IP1 – ERK1/2 ΔΔLog10(τ/KA)” value in the data set on wild-type M1 mAChR is on record as 1.4 ± 0.2. Besides, the “shape of the dose response on learning and memory” value in the data set with C57Bl/6J mice is “no evidence of a bell-shaped dose response”. Besides, the “free brain concentration versus dose” value in data set [2] is listed as “could not be increased beyond that observed at 10 mg/kg”. In addition, the “displacement of specific [^3H]-GSK1034702 binding” value on human M1 mAChR [3] is recorded as “fully displaced”. Moreover, the “effect on the [^3H]-NMS dissociation rate” value at human M1 mAChR [4] was “no effect”. In addition, at human M1 mAChR [5] (CHO Flp-In human M1 cells), the “IP1 Emax” value was found to be 55.2 ± 3.1. In addition, the “IP1 Accumulation ΔLog10(τ/KA)” value on human M1 mAChR [5] (setting [6]) is on record as 1.1 ± 0.2. Further, on human M1 mAChR [5] (setting [7]), the “IP1 Accumulation Log10(τ/KA)” value is 8.2 ± 0.2.

`CCCCCCOc1nsnc1C1=CCCN(C)C1` [Xanomeline, xanomeline]: the “Log Bias Factor IP1 – ERK1/2 ΔΔLog10(τ/KA)” value with wild-type M1 mAChR turned out to be 1.1 ± 0.1. Also, the “shape of the dose response on learning and memory” value with C57Bl/6J mice is on record as “bell shaped”. Further, the “free brain concentration versus dose” value in [2] was “increase linearly with escalating doses”. Besides, the “effect on cognitive function” value with patients with AD was “significantly improved cognitive function”. The adverse responses entry in the data set with murine prion disease is given as “gave adverse responses consistent with the activation of other muscarinic receptor subtypes”.

For the molecule `CN1[C@@H]2C[C@@H](OC(=O)[C@H](CO)c3ccccc3)C[C@H]1[C@@H]1O[C@@H]12` [scopolamine], the “effect on contextual fear conditioning learning and memory” value with C57Bl/6J mice (doses above 1 mg/kg, 30 minutes prior to training) was “significant reduction in contextual fear conditioning learning and memory”.
